What was measured:
[1] = system: PBMC-derived CD8+ T cells from T1D patients; test: Binding of HLA-A*02:01 barcoded pMHC tetramer library to PBMC-derived CD8+ T cells of T1D patients and healthy donors; parameters: species or system human; conditions: for Normalized T1D prevalence: average number of times the epitope in the pMHC tetramer library was bound by cognate TCR in the T1D cohort, 8 T1D patients, 1 nM per tetramer; for % Presence in T1D samples: percentage of T1D samples in which the epitope response was observed
Source text: This example describes assessment of peptide binding to peripheral T cells from 8 short clinical duration T1D patients and 21 healthy donors who are HLA-matched without a history of diabetes, thereby to identify T1D-associated, HLA-A*02:01-restricted T cell epitopes.
Briefly, in the high-throughput screen described in Example 1, a library of HLA-A*02:01 oligo-barcoded pMHC tetramers was created as described in Francis et al., (2022) Sci Immunol 21:eabk3070. This tetramer library was composed of individual pMHCs representing hundreds of different epitopes identified in Example 1. CD8+ T cells were derived from frozen peripheral blood mononuclear cells (PBMCs) of human donors. CD8+ T cells were enriched via magnetic-activated cell separation from thawed PBMCs via commercially available negative enrichment kits (Miltenyi). Resulting enriched CD8+ T cells were counted and a standard input of 1 million CD8+ T cells per subject were then stained with tetramer libraries at final concentration of 1 nM per pMHC tetramer, in the presence of 2 mg/mL salmon sperm DNA in PBS with 0.5% BSA solution for 20 min. Stained cells were barcoded by commercially available anti-TCR antibody-derived tags (ADT, clone IP26, Biolegend). Tetramer bound cells were then labeled with phycoerythrin (PE) conjugated anti-DKDDDDK-Flag antibody (Biolegend) followed by dead cell discrimination using 7-amino-actinomycin D (7-AAD). Live, tetramer positive cells were sorted using a Sony MA900 Sorter. Following sorting, tetramer positive cells were single-cell sequenced using commercially available systems and protocols from 10× Genomics. Post-sequencing cells were demultiplexed and passed through standard quality control workflows (removal of duplicates, damaged cells, empty droplets, etc.) as described in Francis et al., (2022) Sci Immunol 21:eabk3070. Demultiplexed, tetramer positive cells were scored for pMHC-TCR interactions as described in Francis et al., (2022) Sci Immunol 21:eabk3070. Non-control pMHC-TCR putative binders passing quality control filters and scoring were used for analysis. The resulting pMHC-TCR matrix reactivity map was analyzed by abundance for “normalized T1D prevalence”, “relative enrichment”, and “% presence in T1D samples.” Normalized prevalence was defined as the average number of times an epitope in the pMHC tetramer library was bound by cognate TCR in the T1D cohort. […] Finally, for an epitope to be considered of value, it must pass prevalence and enrichment thresholds and have cognate T cells present in at least 75 percent of T1D subjects.

[2] = system: recombinant TCRs (rTCRs); test: Activation (CD69+) of J76-CD8-NFAT-GFP cells expressing recombinant TCRs by peptide-loaded HLA-A*02:01+ T2 cells; assay type: cell-based, human; conditions: 50 μM peptide, T2 cells 1:1, 16 hours
Source text: This example describes functional validation of the T cell epitopes described in Examples 2 and 3, and their cognate TCRs, by assessing the ability of certain T cell epitopes, when presented by APCs that express HLA-A*02:01, to activate an immortalized T cell line expressing recombinant TCRs sequenced from the T cells of T1D patients and healthy donors. […] The relevance of certain identified T1D associated epitopes was evidenced by binding and activation of cognate TCRs in primary T cells or recombinant T cell lines.
(§1) Briefly, native paired alpha and beta TCR sequences identified from human tissues, such as PBMC or islet-derived CD8 T cells, were cloned into the pLVX-EFla lentiviral backbone (Takara) as a bicistronic TCRB-T2A-TCRa vector. TCRa/B/Jurkat J76 cells, which were engineered to express CD8 and a nuclear factor of activated T cells (NFAT)-green fluorescent protein (GFP) reporter (referred to as J76-CD8-NFAT-GFP), were transduced with lentiviral vectors produced from HEK 293T cells. To assess functional activity of the recombinant TCRs (rTCRs), J76-CD8-NFAT-GFP expressing recombinant TCRs were incubated at a 1:1 ratio with the HLA-A*02:01^+ T2(174×CEM.T2) (ATCC CRL-1991) lymphoblastic cell line, with a final concentration of 50 μM of cognate peptide (Vivitide, >95% pure) or 0.5% dimethylsulfoxide (DMSO, vehicle). Cell mixtures were incubated at 37° C., 5% CO2 for 16 hours. Activation of the T cells was assessed by flow cytometry using anti-CD3-PE-Cy7 (Clone UCHT1) and anti-CD69-APC (Clone FN50) antibodies, and analyzed using the Satorius iQue Screener Plus and FlowJo v10. Activation of rTCR-expressing cell lines was determined by comparing the mean percentage of CD69^+ cells out of CD3^+ cells, in cell mixtures with cognate peptide-loaded T2 cells, with the mean percentage in cell mixtures with no peptide (DMSO control).

[3] = system: islet-derived rTCR; test: Peptide dose-response of islet-derived rTCR expressed in Jurkat T cells; assay type: cell-based, human; conditions: Jurkat T cells expressing islet-derived rTCR, pulsed with 0.001 to 100 μM peptide; approximate affinity of pMHC-rTCR interaction; read-out: EC50 (half maximal effective concentration)
Procedure: FIG. 1 depicts a dose-response for the islet-derived rTCR described in Table 5 when pulsed with a range of cognate peptide from 0.001 to 100 μM.
This epitope bound to a single, high abundance TCR derived from an individual that was diagnosed with Type I diabetes 4 months prior to death. […] The EC50 value represents an approximate affinity for the pMHC-rTCR[…] interaction.
as §1, with “To assess functional activity of the recombinant TCRs (rTCRs), J76-CD8-NFAT-GFP expressing recombinant TCRs were incubated at a 1:1 ratio with the HLA-A*02:01^+ T2(174×CEM.T2) (ATCC CRL-1991) lymphoblastic cell line, with a final concentration of 50 μM of cognate peptide (Vivitide, >95% pure) or 0.5% dimethylsulfoxide (DMSO, vehicle). Cell mixtures were incubated at 37° C., 5% CO2 for 16 hours.” left out

[4] = system: pancreatic islet infiltrating T cells; test: Binding of pMHC library to polyclonally expanded islet-derived T cell lines from T1D organ donors; parameters: species or system human; conditions: single high abundance TCR
Source text: This example describes assessment of peptides that bind to T cell lines derived from living pancreatic islets of recently deceased pancreatic organ donors with T1D, thereby to identify T1D-associated, HLA-A*02:01-restricted T cell epitopes directly associated with islet infiltrating T cells. This assay, using specialized post-mortem processing of difficult-to-obtain pancreas biopsy, further confirmed the association of selected epitopes with T1D, given that disease-associated T cell epitopes generally result in infiltration of T cells that can cause inflammation and subsequent beta cell cytotoxicity in the pancreas.
Briefly, pancreatic slices were sourced from individuals with suspected or confirmed Type I diabetes diagnosis at the time of death by the Network of Pancreatic Organ Donors. Within in 72 hours of death, pancreatic islets were macrodissected from the slices under sterile conditions. These islets were cultured with a cocktail of cytokines and immune stimulating factors that allow T cell expansion independent of cognate TCR-pMHC interaction, using the polyclonal T cell expansion method described in Babon et al., (2016) Nat Med 22:1482-1487. The resulting T cell lines were then screened against pMHC libraries described in Example 2.
This epitope bound to a single, high abundance TCR derived from an individual that was diagnosed with Type I diabetes 4 months prior to death. […]

| Sequence | Normalized T1D prevalence [1] | % Presence in T1D samples [1] | further results |
| --- | --- | --- | --- |
| SVALWNNAV | 1.13 | 87.5% | – |
| NLYTFVLKV | 2.56 | 87.5% | – |
| LQFRGSMLA | 2.00 | 100% | – |
| QLLFSLPKL | – | – | Mean % CD69+ T cells with cognate peptide ([2]; TCR_16, source PBMC): 61.55% |
| QALDVGWLV | 1.19 | 87.5% | – |
| MVWESGCVV | 16.313 | 100% | – |
| LLPPRVLPA | – | – | Mean % CD69+ T cells with cognate peptide ([2]; TCR_15, source PBMC): 32.25% |
| ALAWAVWLA | 1.94 | 87.5% | – |
| KMAKDWKTV | 2.38 | 100% | Mean % CD69+ T cells with cognate peptide ([2]; TCR_12, source PBMC): 18.65% |
| VLQASSISA | 3.19 | 100% | – |
| VLVNKVLLV | 1.69 | 87.5% | Mean % CD69+ T cells with cognate peptide ([2]; TCR_10, source PBMC): 29.45% |
| YAPWELLSV | 2.44 | 87.5% | Mean % CD69+ T cells with cognate peptide ([2]; TCR_05, source PBMC): 38.4%; Mean % CD69+ T cells with cognate peptide ([2]; TCR_13, source PBMC): 17.55% |
| TLSWALYEL | 2.50 | 100% | Mean % CD69+ T cells with cognate peptide ([2]; TCR_01, source PBMC): 59.8%; Mean % CD69+ T cells with cognate peptide ([2]; TCR_02, source PBMC): 58%; Mean % CD69+ T cells with cognate peptide ([2]; TCR_04, source PBMC): 48%; Mean % CD69+ T cells with cognate peptide ([2]; TCR_06, source PBMC): 39%; Mean % CD69+ T cells with cognate peptide ([2]; TCR_07, source PBMC): 33.55%; Mean % CD69+ T cells with cognate peptide ([2]; TCR_14, source PBMC): 15.45% |
| NLLYPVPLV | 2.81 | 87.5% | Mean % CD69+ T cells with cognate peptide ([2]; TCR_03, source PBMC): 49.75%; Mean % CD69+ T cells with cognate peptide ([2]; TCR_08, source PBMC): 27.25%; Mean % CD69+ T cells with cognate peptide ([2]; TCR_11, source PBMC): 21.65% |
| VIGDWLNLI | 2.188 | 75% | EC50 [3]: 2200 nM; Mean % CD69+ T cells with cognate peptide ([2]; TCR_09, source PBMC): 26.15%; Mean % CD69+ T cells with cognate peptide ([2]; TCR_18, source PBMC): 26.15%; Mean % CD69+ T cells with cognate peptide ([2]; TCR_19, source islet): 28.8%; Binding to islet-derived T cells from T1D patients [4]: identified as binding |
| KLSPSQHLA | 1.06 | 87.5% | – |
| ALMGQAAGV | 1.50 | 87.5% | – |
| FVAGLFVML | 1.88 | 87.5% | – |
| LMSGILGLA | 2.44 | 87.5% | – |
| FSESILTYV | 2.88 | 87.5% | – |
| FLPYDHARI | 2.94 | 87.5% | – |
| FLSWALNSC | 2.50 | 100% | – |
| TLMAVIGGL | 3.63 | 100% | – |
| TLVTLCHYA | 1.94 | 87.5% | – |
| TLDIFLEIV | – | – | Mean % CD69+ T cells with cognate peptide ([2]; TCR_17, source PBMC): 36.7% |
| GQWAGGAYA | 1.81 | 87.5% | – |
| TLSKPSPMPV | 1.06 | 87.5% | – |
| KLNWDLHTA | 3.63 | 87.5% | – |
